Data published in patent US7932290B2, “Method for the treatment of metabolic disorders” (Wellstat Biologics Corporation, priority 2003, dated 2011).

Key:
[1] = test system: male ob/ob mouse model of Type II diabetes; test: Antidiabetic effects in ob/ob mice (serum chemistry after 2 weeks daily oral dosing); assay type: in vivo; design: key to Glucose ± SEM: serum glucose in mg/dl; Triglycerides ± SEM / Free Fatty Acids ± SEM: unit not given here; settings: for Glucose / Glucose (% of Control): 2 weeks; for Glucose ± SEM: Table 15; for reduction in blood glucose (in words) / reduction in free fatty acids (in words) / reduction in triglycerides (in words): 2 weeks daily oral dosing
Experimental: Obese (ob/ob) mice have a defect in the protein leptin, a regulator of appetite and fuel metabolism, leading to hyperphagia, obesity and diabetes.
Male obese (ob/ob homozygote) C57BL/6J mice, approximately 8 weeks of age, were obtained from Jackson Labs (Bar Harbor, Me.) and randomly assigned into groups of 5 animals each such that the body weights (45-50 g) and serum glucose levels (≧300 mg/dl in fed state) were similar between groups. A minimum of 7 days was allowed for adaptation after arrival. All animals were maintained under controlled temperature (23° C.), relative humidity (50±5%) and light (7:00-19:00), and allowed free access to standard chow (Formulab Diet 5020 Quality Lab Products, Elkridge, Md.) and water.
Treatment cohorts were given daily oral doses of vehicle (1% hydroxypropyl-methylcellulose), Compounds BI, CF, CA, CB, CC, or CD for 2 weeks. At the end of the treatment period 100 μl of venous blood was withdrawn in a heparinized capillary tube from the retro-orbital sinus of ob/ob mice for serum chemistry analysis.

[2] = test system: db/db mice; test: Antidiabetic effects in db/db mice, Example B (2 weeks daily oral dosing); assay type: in vivo, mouse
Description: (§1) db/db mice have a defect in leptin signaling, leading to hyperphagia, obesity and diabetes. Moreover, unlike ob/ob mice on a C57BL/6J background, db/db mice on a C57BL/KS background undergo failure of their insulin-producing pancreatic islet cells, resulting in progression from hyperinsulinemia (associated with peripheral insulin resistance) to hypoinsulinemic diabetes.
Male obese (db/db homozygote) C57BL/Ksola mice approximately 8 weeks of age, were obtained from Jackson Labs (Bar Harbor, Me.) and randomly assigned into groups of 5-7 animals such that the body weights (50-55 g) and serum glucose levels (≧300 mg/dl in fed state) were similar between groups; male lean (db/+heterozygote) mice served as cohort controls. A minimum of 7 days was allowed for adaptation after arrival. All animals were maintained under controlled temperature (23° C.), relative humidity (50±5%) and light (7:00-19:00), and allowed free access to standard chow (Formulab Diet 5008, Quality Lab Products, Elkridge, Md.) and water.
Treatment cohorts were given daily oral doses of Vehicle (1% hydroxypropylmethylcellulose), Compounds BI, CE, BT, BV, […] or Fenofibrate for 2 weeks. At the end of the treatment period 100 μl of venous blood was withdrawn in a heparinized capillary tube from the retro-orbital sinus of db/db mice for serum chemistry analysis.

[3] = test system: db/db mice; test: Antidiabetic effects in db/db mice, Example C (17 days daily oral dosing); assay type: in vivo, mouse
Description: as §1, with “C57BL/Ksola (db/db) mice have” for “db/db mice have”, “on a C57BLKS background undergo” for “on a C57BL/KS background undergo”
Male obese (db/db homozygote) C57BL/Ksola mice approximately 8 weeks of age, were obtained from Jackson Labs (Bar Harbor, Me.) and sorted into groups of 7 animals each animals such that the body weights (40-45 g) and serum glucose levels (≧300 mg/dl in fed state) were similar between groups. A minimum of 7 days was allowed for adaptation after arrival. All animals were maintained under controlled temperature (23° C.), relative humidity (50±5%) and light (7:00-19:00), and allowed free access to standard chow (Formulab Diet 5008, Quality Lab Products, Elkridge, Md.) and water.
Treatment cohorts were given daily oral doses of vehicle (1% hydroxypropylmethylcellulose), Compounds BI, CF, CG, or phenylacetate for 17 days. At the end of the treatment period, blood samples were collected and serum glucose and triglycerides were measured.

[4] = target: T1, Mouse PPARγ LBD fusion protein (Mus musculus, UniProt P37238); test: Transcription activation potential, GAL4 luciferase reporter in Hepa1.6 cells; assay type: cell-based
T1 sequence (P37238 238-503): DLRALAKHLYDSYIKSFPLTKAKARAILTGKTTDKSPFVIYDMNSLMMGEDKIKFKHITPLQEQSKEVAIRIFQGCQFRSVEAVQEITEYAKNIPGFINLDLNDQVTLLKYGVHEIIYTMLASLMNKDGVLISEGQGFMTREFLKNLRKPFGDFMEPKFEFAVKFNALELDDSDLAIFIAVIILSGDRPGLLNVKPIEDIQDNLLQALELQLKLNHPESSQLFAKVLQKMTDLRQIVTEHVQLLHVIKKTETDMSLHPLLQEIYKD
Experimental: Cells were seeded in 24 well plates the day prior to transfection at 5×10^4−2×10^5 cells/well, depending upon cell type. Cells were transfected using Lipofectamine 2000 reagent from Invitrogen. A total of 0.8 μg DNA/well was added to 50 μL of Optimem Reduced Serum media (serum free; Gibco). Lipofectamine 2000 was added (2.5 μL/well) to another tube containing 50 μL of Optimem media. Plasmid DNA was added at a ratio of 4:3 (reporter:activator); where appropriate, salmon sperm DNA was substituted for activator expressing plasmid. […] DNA constructs containing the mouse PPARα or PPARγ LBD fused to the GAL4 DNA binding domain were also used. The two solutions were incubated at room temperature for 5 min, and then combined. The combined solution was incubated at room temperature for approximately 30 min. Cells were washed once with PBS, and 100 μL of transfection mix added to each well. Plates were incubated at 37° C. in a 5% CO2 incubator for 4.5 hr, followed by aspiration of the transfection mix, with plates refed using EMEM complete media (supplemented with 10% FBS, 1× Glutamine). 24 hr post-transfection, plates were treated with the appropriate compounds in EMEM complete media, followed by washing once with PBS and addition of 100 μL 1× reporter lysis buffer/well (Promega) 24 hr after treatment. Plates went through one freeze/thaw cycle prior to analysis. Approximately 10 μL of lysate was added to 100 μL of firefly luciferase substrate, mixed by pipetting, and analyzed on a luminometer for 10 s using the integration function (relative luciferase units/RLU) or on a Microbeta Trilux (luciferase counts per second/LCPS). Each treatment was performed in triplicate, and in multiple, separate experiments.

[5] = serum, 2 weeks daily oral, dose not given in Table 17 (see Table 16)

Cc1cccc(C)c1COc1cccc(C(=O)CCC(=O)O)c1 [Compound BI, 4-(3-(2,6-Dimethylbenzyloxy)phenyl)-4-oxobutyric acid]
Free Fatty Acids ± SEM ([1]; 30 mg/kg): 1272.8 ± 32.5 | Triglycerides ± SEM ([1]; 30 mg/kg): 66.6 ± 3.6 | Glucose ([1]; 30 mg/kg daily oral): 301.4 ± 29.0 mg/dL | Glucose (% of Control) ([1]; 30 mg/kg daily oral): 71.0 ± 7.0 % of Control | Glucose ± SEM ([1]; 30 mg/kg): 301.4 ± 29.0 | Glucose ([1]; 60 mg/kg daily oral): 248.8 ± 20.0 mg/dL | Glucose (% of Control) ([1]; 60 mg/kg daily oral): 59.0 ± 5.0 % of Control | Free Fatty Acids ± SEM ([1]; 100 mg/kg): 1245.4 ± 20.0 | Triglycerides ± SEM ([1]; 100 mg/kg): 55.0 ± 3.4 | Glucose ([1]; 100 mg/kg daily oral): 196.3 ± 6.0 mg/dL | Glucose (% of Control) ([1]; 100 mg/kg daily oral): 46.0 ± 1.0 % of Control | reduction in blood glucose (in words) ([1]; 100 mg/kg): significant reduction | reduction in free fatty acids (in words) ([1]; 100 mg/kg): significant reduction | reduction in triglycerides (in words) ([1]; 100 mg/kg): significant reduction | Glucose ± SEM ([1]; 100 mg/kg): 196.3 ± 6.0 | Glucose (% of Control) ([2]; 100 mg/kg daily oral, 2 weeks): 50 ± 6 % of Control | Glucose ([2]; nonfasting, 100 mg/kg daily oral, 2 weeks): 347.0 ± 43.1 mg/dL | Free Fatty Acids ± SEM [2, 5]: 1997.2 ± 196.4 µM | Triglycerides ± SEM [2, 5]: 77.8 ± 5.3 mg/dL | Glucose mg/dL (±SEM) ([3]; 100 mg/kg daily oral): 472 ± 54 mg/dL | Triglycerides ([3]; 100 mg/kg daily oral): 116 ± 4 mg/dL | Glucose mg/dL (±SEM) ([3]; 150 mg/kg daily oral): 348 ± 67 mg/dL | Triglycerides ([3]; 150 mg/kg daily oral): 90 ± 6 mg/dL | transcription activation potential (luciferase) ± standard deviation ([4]; 1 μM): 210 ± 51 RLU | transcription activation potential (luciferase) ± standard deviation ([4]; 3 μM): 256 ± 33 RLU | transcription activation potential (luciferase) ± standard deviation ([4]; 5 μM): 254 ± 81 RLU | transcription activation potential (luciferase) ± standard deviation ([4]; 7 μM): 265 ± 61 RLU | transcription activation potential (luciferase) ± standard deviation ([4]; 10 μM): 355 ± 53 RLU | transcription activation potential (luciferase) ± standard deviation ([4]; 30 μM): 441 ± 203 RLU | transcription activation potential (luciferase) ± standard deviation ([4]; 100 μM): 820 ± 353 RLU

Cc1cccc(C)c1COc1cccc(C(=O)O)c1 [Compound CG, 3-(2,6-Dimethylbenzyloxy)benzoic acid]
Glucose mg/dL (±SEM) ([3]; 100 mg/kg daily oral): 753 ± 24 mg/dL | Triglycerides ([3]; 100 mg/kg daily oral): 166 ± 14 mg/dL

Cc1cccc(C)c1COc1cccc(CC(=O)O)c1 [Compound CF, 3-(2,6-Dimethylbenzyloxy)phenylacetic acid]
Glucose ([1]; 60 mg/kg daily oral): 161.2 ± 14.0 mg/dL | Glucose (% of Control) ([1]; 60 mg/kg daily oral): 38.0 ± 3.0 % of Control | reduction in blood glucose (in words) ([1]; 60 mg/kg): significant reduction | reduction in free fatty acids (in words) ([1]; 60 mg/kg): significant reduction | reduction in triglycerides (in words) ([1]; 60 mg/kg): significant reduction | Glucose mg/dL (±SEM) ([3]; 30 mg/kg daily oral): 586 ± 31 mg/dL | Triglycerides ([3]; 30 mg/kg daily oral): 156 ± 20 mg/dL | Glucose mg/dL (±SEM) ([3]; 60 mg/kg daily oral): 604 ± 36 mg/dL | Triglycerides ([3]; 60 mg/kg daily oral): 120 ± 13 mg/dL | Glucose mg/dL (±SEM) ([3]; 100 mg/kg daily oral): 391 ± 61 mg/dL | Triglycerides ([3]; 100 mg/kg daily oral): 92 ± 6 mg/dL | transcription activation potential (luciferase) ± standard deviation ([4]; 1 μM): 361 ± 138 RLU | transcription activation potential (luciferase) ± standard deviation ([4]; 3 μM): 602 ± 144 RLU | transcription activation potential (luciferase) ± standard deviation ([4]; 5 μM): 710 ± 87 RLU | transcription activation potential (luciferase) ± standard deviation ([4]; 7 μM): 786 ± 418 RLU | transcription activation potential (luciferase) ± standard deviation ([4]; 10 μM): 1140 ± 111 RLU | transcription activation potential (luciferase) ± standard deviation ([4]; 30 μM): 1253 ± 554 RLU | transcription activation potential (luciferase) ± standard deviation ([4]; 100 μM): 1534 ± 608 RLU
